Experimental data as given in patent publication US20070299089A1, “Use of A2A Adenosine Receptor Agonists in the Treatment of Ischemia” (CV THERAPEUTICS, INC., priority 2006, published 2007).
In brackets after ≈: the same amount, converted by molar mass.

Experiments:
[1] = system: mouse isolated hearts; assay: Coronary vascular resistance in Langendorff-perfused isolated hearts, Protocol 2 (CPP lowered to 30 mmHg and maintained for 50 min); conditions: n=6
Protocol: (§1) The objective of this example was to determine whether the selective and stable A2A agonist, regadenoson, can prevent or modify coronary microcirculation vasoconstriction during ischemia. To this purpose, in 60 mouse isolated hearts perfused in Langendorff configuration coronary vascular resistance (CVR) was continuously monitored for 70 min during various interventions using two different protocols. In hearts (n=9) perfused at a constant coronary perfusion pressure (CPP) of 65 mmHg CVR remained stable throughout the 70 min of the experiment.
In Protocol 2, CPP was lowered to 30 mmHg at 20 min and maintained for the remaining 50 min. In untreated hearts (n=9), the sustained lowering of CPP was accompanied by a progressive rise in CVR up to the end of the experiment when it reached a maximum of 240%±21 above baseline. Addition of regadenoson (10 nM) to the perfusate either at 10 (n=6) or 30 (n=6) min after lowering CPP caused a rapid and progressive vasodilation thereby bringing CVR to baseline values within 10 min. In summary, the isolated heart reacts to lowering of CPP with a progressive and severe vasoconstriction that can be prevented by pre-treatment with an A2A agonist.

[2] = Solubility in water; assay type: physicochemical
Protocol: In one aspect of this invention, mammalian ischemia is treated with a pharmaceutical composition including CVT-3146—regadenoson. Regadenoson has solubility in water of about 50 micrograms/mL. Therefore, regadenoson can be dissolved and administered in water so long as the desired weight amount of regadenoson can be administered in an acceptable volume. For example, a dose of about 400 micrograms can be administered in 8 mL of water. If this volume is too great for administration purposes, or if the pharmaceutical composition will be stored at other than room temperature (RT), then additional ingredients can be added to the composition to increase the solubility of regadenoson in the composition and/or to provide the resulting pharmaceutical composition with other improved properties such as improved stability and storage properties.

[3] = system: mouse isolated hearts; assay: Coronary vascular resistance in Langendorff-perfused isolated hearts, Protocol 1 (CPP lowered to 30 mmHg for 20 min, then restored to 65 mmHg); conditions: for increase in CVR during lowering of CPP: n=6, p<0.001
Protocol: as §1
In Protocol 1, CPP was lowered to 30 mmHg at 20 min, maintained for the following 20 min and restored to 65 mmHg for the remaining 30 min. In untreated hearts (n=12), lowering CPP for 20 min increased CVR up to a maximum of 191%±9 above baseline (P<0.001).

solubility [2]: ~50 µg/mL (≈ 128 µM)
SMILES: CNC(=O)c1cnn(-c2nc(N)c3ncn([C@@H]4O[C@H](CO)[C@@H](O)[C@H]4O)c3n2)c1 [regadenoson, (1-{9-[(4S,2R,3R,5R)-3,4-dihydroxy-5-(hydroxymethyl)oxolan-2-yl]-6-aminopurin-2-yl}pyrazol-4-yl)-N-methylcarboxamide]
time to bring CVR to baseline values ([1]; regadenoson 10 nM added to perfusate 10 min after lowering CPP): ≤ 10 min
time to bring CVR to baseline values ([1]; regadenoson 10 nM added to perfusate 30 min after lowering CPP): ≤ 10 min
maximum increase in CVR above baseline during lowering of CPP ([3]; regadenoson 3 nM, CPP 30 mmHg for 20 min, n=6, untreated hearts 191%±9): 131%±15
elevated CVR remaining after restoring CPP to 65 mmHg ([3]; regadenoson 3 nM, untreated hearts 153%±10 above baseline): significantly reduced
increase in CVR during lowering of CPP ([3]; regadenoson 10 nM, CPP 30 mmHg for 20 min): abolished the increase in CVR
elevated CVR remaining after restoring CPP to 65 mmHg ([3]; regadenoson 10 nM, p<0.01): abolished
increase in CVR during lowering of CPP ([3]; regadenoson 30 nM, CPP 30 mmHg for 20 min): abolished the increase in CVR
elevated CVR remaining after restoring CPP to 65 mmHg ([3]; regadenoson 30 nM, p<0.01): abolished
